Test [1] deals with ovarian cancer cell line A2780. Nature of the test: Clonogenic assay, 6 days of continuous action, A2780. It is filed as cell-based, human. As for the experimental part: (§1) Human cervical cancer cell line HeLa, human liver cancer cell line HepG2/7221/7402, human ovarian cancer cell line HOC8/A2780, human glioma cell line BT325, lung cancer cell line A549, brain metastatic lung cancer cell line BT72 and normal human hepatic cell line LO2 were all grown in DMEM liquid medium supplemented with 10% newborn calf serum. Human leukemia cell line Jurkat was grown in 1640 medium supplemented with 10% newborn calf serum. The above cell lines were cultured in a CO2 incubator at 5% CO2 at 37° C.
(§2) By way of example, human cervical cancer cell line HeLa, lung cancer cell line A549, and ovarian cancer cell lines A2780 and HOC8 were used to determine the killing of cancer cells by 2-bromo-isovanillin for 6 days. Specifically, four groups were formed according to the type of the cancer cells. The cancer cells were diluted as appropriate, and were respectively plated into Petri dishes with a diameter of […], the amount of the cells adjusted depending on the concentration of 2-bromo-isovanillin to be added. Once adherence was achieved, each cell type received dosages of 0, 5, 10, 15, 20, 25, 30 and 35 μmol/L in triplicates. After 6 days of continuous action, the medium was replaced by a drug-free DMEM liquid medium. […] Then the cell clones were counted. The experimental data were expressed as the mean of 2-4 experiments and were plotted as a growth curve of cancer cells.

For test [2], the system named is human liver cancer cell line 7402. As to the kind of experiment: G2/M arrest by flow cytometry, 7402. It is filed as cell-based. The conditions noted are these: 7402, 40 μmol/L, 24 hrs. On the procedure:
(§3) By way of example, human liver cancer cell lines HepG2 and 7402, human ovarian cancer cell lines HOC8 and A2780, human glioma cell line BT325, lung cancer cell line A549, brain metastatic lung cancer cell line BT72 and prostate cancer cell line IB-4 were used to investigate the G2/M arresting of solid tumor cells of different tissue origins by 2-bromo-isovanillin as measured by the ratio of cells at G2/M phase. Specifically, the cancer cells were divided into two groups, and were treated with 0 or 40 μmol/L 2-bromo-isovanillin for 24 hours. Then the cells were harvested and analyzed for changes in cell cycle and cell apoptosis by flow cytometry.
On the technique in general: In flow cytometry, cells or beads pass a laser one at a time.

Test [3] has as its system human cervical cancer cell line HeLa. As to the kind of experiment: MTT assay, proliferation of HeLa cells. It is filed as cell-based. As for the experimental part: as §1
By way of example, human cervical cancer cell line HeLa was used to study the effect of vanillin on the proliferation of cancer cells by MTT assay. Specifically, human cervical cancer cells HeLa were seeded into a 96-well plate at a density of 5×10^3 cells/well, and were divided into four groups. To each of the groups vanillin was added at a concentration of 0, 100, 250 or 500 μmol/L, respectively, and was allowed to grow for 4 days. Using the MTT assay, the optical density (OD) values at 490 nm were measured and recorded every day, wherein the OD value is indicative of the number of cells, i.e., the proliferation of cells.
By way of example, human cervical cancer cell line HeLa was used to study the effect of several vanillin derivatives for 72 hrs on the proliferation of cancer cells by MTT assay. Specifically, human cervical cancer cells HeLa were seeded into a 96-well plate at a density of 5×10^3 cells/well, and were divided into four groups. To each of the groups were added increasing concentrations (0, 10, 20, 30, 40 μmol/L) of vanillin derivatives ethyl vanillin (Code No. VAND3206), 4-methoxy vanillin (Code No. VAND3207), isovanillin (Code No. VAND3209) and 2-bromo-isovanillin (Code No. VAND3208), and the cells were cultured for 72 hrs. Using the MTT assay, the optical density (OD) values at 490 nm were measured and recorded every day, wherein the OD value is indicative of the number of cells, i.e., the proliferation of cells.
By way of example, human cervical cancer cell line HeLa was used to study the inhibitory effect of 2-bromo-isovanillin at different concentrations for different periods of time on the proliferation of cancer cells by MTT assay. Specifically, human cervical cancer cells HeLa were seeded into a 96-well plate at a density of 5×10^3 cells/well, and were divided into […]. To each of the groups 2-bromo-isovanillin was added at a concentration of 0, 10, 20, 30, 40 or 50 μmol/L, and was cultured for 14 days, respectively. Using the MTT assay, the optical density (OD) values at 490 nm were measured and recorded every day, wherein the OD value is indicative of the number of cells, i.e., the proliferation of cells.

The test system of a further test is tumor cells. As to the kind of experiment: Tumor inhibition upon administration for 6 consecutive days (summary statement).
In test [4] the test system is HeLa, HepG2/7221/7402, HOC8/A2780, BT325, A549, BT72 and IB-4 cancer cell lines. Nature of the test: Clonogenic assay, 24 hrs of continuous action, ten cancer cell lines. It is filed as cell-based, human. The conditions noted are these: 5, 10, 20 and 40 μmol/L. On the procedure: as §1
By way of example, human cervical cancer cell line HeLa, human liver cancer cell lines HepG2/7221/7402, human ovarian cancer cell lines HOC8/A2780, human glioma cell line BT325, lung cancer cell line A549, brain metastatic lung cancer cell line BT72 and prostate cancer cell line IB-4 were used to determine the killing of cancer cells by 2-bromo-isovanillin for 24 hrs. Specifically, ten groups were formed according to the type of the cancer cells. The cancer cells were diluted as appropriate, and were respectively plated into Petri dishes with a diameter of […], the amount of the cells adjusted depending on the concentration of 2-bromo-isovanillin to be added. […] Then the cell clones were counted. The experimental data were expressed as the mean of […] and were plotted as a growth curve of cancer cells, as shown in FIG. 3.

The subject of test [5] is prostate cancer cell line IB-4. Nature of the test: G2/M arrest by flow cytometry, IB-4. It is filed as cell-based. The following applies: IB-4, 40 μmol/L, 24 hrs. As for the experimental part:
as §3

The subject of test [6] is human liver cancer cell line HepG2. As to the kind of experiment: Clonogenic assay, HepG2 compared with normal hepatic cells LO2. It is filed as cell-based. The conditions noted are these: 5-80 μmol/L, 24 hrs. As for the experimental part:
By way of example, human liver cancer cell line HepG2 and normal human hepatic cell line LO2 were used to study the inhibitory effect of 2-bromo-isovanillin on the growth of liver cancer cells and normal cells by clonogenic assay. Specifically, five groups were formed according to the drug concentration, and the liver cancer cells HepG2 and normal hepatic cells LO2 were respectively treated with 5, 10, 20, 40 and 80 μmol/L 2-bromo-isovanillin for 24 hrs. Then cell survival was measured by clonogenic assay (FIG. 8). In addition, the cell cycle profile and apoptotic effect were compared using flow cytometry.

Test [7] has as its system human cervical cancer cell line HeLa. Nature of the test: Clonogenic assay, 6 days of continuous action, HeLa. It is filed as cell-based. On the procedure:
as §1, §2

Here are results for one compound from patent US7981939B2, “Application of 2-bromide-isovanillin for the manufacture of a medicament for anti-cancer or/and radiation/chemotherapy sensitization” (Institute of Radiation Medicine, Academy of Military …, priority 2005, dated 2011).

As for `COc1ccc(C=O)c(Br)c1O` [2-bromo-isovanillin, 2-bromo-3-hydroxy-4-methoxybenzaldehyde], the survival rate result in test [1] (A2780, 20 μmol/L) is recorded as “lower than 10%”; in test [7] (20 μmol/L), “lower than 10%”. The proliferation entry is “completely inhibited” in test [1] (A2780, 30 μmol/L) and “completely inhibited” in test [7] (30 μmol/L). Besides, the cell cycle effect entry in test [2] and in test [5] was “arrested at G2/M phase” each time. The “effect on the proliferation of HeLa cells” value is on record as “remarkable inhibitory effect” in test [3] (20 μmol/L); “completely lost their proliferative capabilities” in test [3] (30 μmol/L or above for 4 days); “significant inhibition” in test [3] (concentrations of less than 40 μmol/L, up to 72 hrs). For the same compound, the tumor inhibition in the test on tumor cells is listed as 80-95%. For the same compound, the “effect on the proliferation of all ten cancer cell lines” value in test [4] was “significant inhibitory effect”. Also, in test [6], the “killing effect on HepG2 compared with normal hepatic cells” value is “significantly higher”.
